Measured values as given in patent US11214803B2, “Modulators of YAP1 expression” (Ionis Pharmaceuticals, Inc., priority 2019, dated 2022).
Strand notation (5' to 3'): a small letter for the sugar, then the base; units joined by * are phosphorothioate-linked, units joined directly phosphodiester-linked; [ ] holds rarer units or linkages, { } end groups; capitals alone tell only the bases. k = constrained ethyl (cEt); [5mC] = 5-methylcytosine; d = 2'-deoxy (DNA)

Tested on: Yap1 mRNA
Assay: Antisense inhibition of human Yap1 in A-431 cells by cEt gapmers, single dose (Example 2, RTS4814)
Type: cell-based
Protocol: Modified oligonucleotides were designed to target a Yap1 nucleic acid and were tested for their effect on Yap1 mRNA level in vitro. The modified oligonucleotides were tested in a series of experiments that had similar culture conditions. Cultured A-431 cells at a density of 5,000 cells per well were treated using free uptake with 2,000 nM of modified oligonucleotide. After a treatment period of approximately 48 hours, RNA was isolated from the cells and Yap1 mRNA levels were measured by quantitative real-time RTPCR. Human primer probe set RTS4814 was used to measure mRNA levels. Yap1 mRNA levels were normalized to total RNA content, as measured by RIBOGREEN®. Results are presented in the tables below as percent control of the amount of Yap1 mRNA relative to untreated control cells (% UTC). The modified oligonucleotides with percent control values marked with an asterisk (*) target the amplicon region of the primer probe set. Additional assays may be used to measure the potency and efficacy of the modified oligonucleotides targeting the amplicon region.
The newly designed modified oligonucleotides in the Tables below were designed as 3-10-3 cEt gapmers. The gapmers are 16 nucleosides in length, wherein the central gap segment comprises of ten 2′-deoxynucleosides and is flanked by wing segments on the 5′ direction and the 3′ direction comprising three nucleosides each. Each nucleoside in the 5′ wing segment and each nucleoside in the 3′ wing segment has a cEt sugar modification. The internucleoside linkages throughout each gapmer are phosphorothioate (P═S) linkages. All cytosine residues throughout each gapmer are 5-methylcytosines.
“Start site” indicates the 5′-most nucleoside to which the gapmer is targeted in the human gene sequence. “Stop site” indicates the 3′-most nucleoside to which the gapmer is targeted human gene sequence. […] Activity ofthe modified oligonucleotide may be defined in a different experiment.

[1] = A-431 cells, 5,000 cells per well, free uptake, 2,000 nM modified oligonucleotide, approx. 48 hours, RTS4814, normalized to RIBOGREEN, Table 4, asterisk (*) = targets amplicon region of primer probe set
[2] = Table 21, Yap1 mRNA, percent of untreated control, 3-10-3 cEt gapmers targeting SEQ ID NO.: 1 and 2
[3] = Table 23, Yap1 mRNA as percent of untreated control, 3-10-3 cEt gapmers, single dose
[4] = Table 33, Yap1 mRNA, percent of untreated control, 3-10-3 cEt gapmers targeting SEQ ID NO.: 1, and 2
[5] = Table 32, Yap1 mRNA, percent of untreated control, 3-10-3 cEt gapmers targeting SEQ ID NO.: 1, and 2
[6] = Table 20, Yap1 mRNA, percent of untreated control, 3-10-3 cEt gapmers targeting SEQ ID NO.: 1 and 2
[7] = Table 5, A-431 cells, 5,000 cells per well, free uptake, 2,000 nM modified oligonucleotide, approx. 48 hours, RTS4814, normalized to RIBOGREEN, Yap1 mRNA relative to untreated control cells
[8] = Table 6, A-431 cells, 5,000 cells per well, free uptake, 2,000 nM modified oligonucleotide, approx. 48 hours, RTS4814, normalized to RIBOGREEN, Yap1 mRNA relative to untreated control cells
[9] = Table 22, Yap1 mRNA as percent of untreated control, 3-10-3 cEt gapmers, single dose
[10] = Yap1 mRNA as percent of untreated control, A-431 cells, 3-10-3 cEt gapmers targeting SEQ ID NO.: 1, and 2, Table 31
[11] = Yap1 mRNA as percent of untreated control, A-431 cells, 3-10-3 cEt gapmers targeting SEQ ID NO.: 1, and 2, Table 30
[12] = Table 19, A-431 cells, 5,000 cells per well, free uptake, 2,000 nM modified oligonucleotide, approx. 48 hours, RTS4814, normalized to RIBOGREEN, Yap1 mRNA as percent of untreated control
[13] = Table 25, Yap1 mRNA as percent of untreated control, 3-10-3 cEt gapmers targeting SEQ ID NO.: 1, and 2
[14] = Table 24, Yap1 mRNA as percent of untreated control, 3-10-3 cEt gapmers targeting SEQ ID NO.: 1, and 2

Substance: 716577 (kT*k[5mC]*kT*dG*dT*d[5mC]*dA*dG*dT*dT*dA*dT*d[5mC]*k[5mC]*kT*kA; antisense) [Compound 716577]
- YAP1 (% UTC) [1]: 21 % UTC

Substance: 1074343 (antisense kA*kG*kA*d[5mC]*dA*dT*d[5mC]*d[5mC]*d[5mC]*dG*dG*dG*dA*kG*kA*kA) [Compound 1074343]
- YAP1 (% UTC) [2]: 18 % UTC

Substance: 1075433 (antisense kT*kT*kA*dA*d[5mC]*dT*dA*dA*d[5mC]*dT*dA*dA*dA*k[5mC]*kT*kG) [Compound 1075433]
- YAP1 (% UTC) [3]: 124 % UTC

Substance: 716346 (kT*kT*kT*d[5mC]*d[5mC]*d[5mC]*dT*dG*dG*d[5mC]*dG*dG*d[5mC]*kG*kG*k[5mC]; antisense) [Compound 716346]
- YAP1 (% UTC) [1]: 77 % UTC

Substance: 1075591 (kG*kT*kA*dA*dT*dA*dA*dT*d[5mC]*dA*d[5mC]*d[5mC]*dT*kT*kA*k[5mC]; antisense) [Compound 1075591]
- YAP1 (% UTC) [2]: 76 % UTC

Substance: 1074803 (kA*kG*kG*d[5mC]*dA*d[5mC]*dT*dA*d[5mC]*dA*dT*dT*dT*kA*kG*kA; antisense) [compound 1074803]
- YAP1 (% UTC) [4]: 32 % UTC

Substance: 1075506 (k[5mC]*kA*kT*dA*dA*dA*dG*dG*dT*dG*dA*d[5mC]*dA*kG*k[5mC]*k[5mC]; antisense) [compound 1075506]
- YAP1 (% UTC) [5]: 66 % UTC

Substance: 1074630 (antisense kA*kG*kA*dG*dA*dT*dT*dT*dT*dA*dT*dG*d[5mC]*k[5mC]*kT*kG) [Compound 1074630]
- YAP1 (% UTC) [6]: 5 % UTC

Substance: 1076487 (antisense kG*kT*kA*d[5mC]*dG*dA*dA*dA*d[5mC]*dG*dA*dA*dA*k[5mC]*kG*kG) [Compound 1076487]
- YAP1 (% UTC) [2]: 21 % UTC

Substance: 1074322 (antisense kA*kG*kG*dG*d[5mC]*dT*dA*dA*d[5mC]*dT*d[5mC]*d[5mC]*dT*kG*kA*k[5mC]) [compound 1074322]
- YAP1 (% UTC) [5]: 94 % UTC

Substance: 716356 (k[5mC]*kG*kA*dG*dG*dT*dG*dG*dA*dG*dA*dA*dG*k[5mC]*kG*kG; antisense) [Compound 716356]
- YAP1 (% UTC) [7]: 112 % UTC

Substance: 1075955 (kG*kA*k[5mC]*d[5mC]*dT*dA*dT*dA*dA*dT*dA*d[5mC]*dA*kG*kA*kA; antisense) [compound 1075955]
- YAP1 (% UTC) [4]: 85 % UTC

Substance: 716549 (k[5mC]*k[5mC]*kA*d[5mC]*dT*dT*dT*dT*dG*d[5mC]*dA*dA*dT*kG*kT*kT; antisense) [Compound 716549]
- YAP1 (% UTC) [8]: 44 % UTC

Substance: 1075826 (kT*kA*kG*dG*dG*dA*dA*dA*dA*d[5mC]*d[5mC]*dA*dT*kA*kG*k[5mC]; antisense) [compound 1075826]
- YAP1 (% UTC) [5]: 23 % UTC

Substance: 716434 (kT*kA*kA*dA*dT*dG*d[5mC]*dT*dG*dT*dG*dA*d[5mC]*kA*kT*kG; antisense) [Compound 716434]
- YAP1 (% UTC) [7]: 44 % UTC

Substance: 1074216 (antisense kG*kA*kT*dT*dT*dG*dG*dG*d[5mC]*dT*d[5mC]*d[5mC]*dG*kG*k[5mC]*kG) [Compound 1074216]
- YAP1 (% UTC) [9]: 58 % UTC

Substance: 1074705 (antisense kG*k[5mC]*kA*d[5mC]*dG*dG*dT*dG*dT*dA*dA*dG*dA*k[5mC]*kA*kA) [compound 1074705]
- YAP1 (% UTC) [10]: 20 % UTC

Substance: 1075303 (kT*kA*kA*dA*d[5mC]*dT*dA*dA*dT*d[5mC]*dT*dA*d[5mC]*kA*kA*k[5mC]; antisense) [Compound 1075303]
- YAP1 (% UTC) [2]: 100 % UTC

Substance: 716383 (kT*k[5mC]*kA*dT*d[5mC]*dA*dT*dA*dT*dT*d[5mC]*dT*dG*k[5mC]*kT*kG; antisense) [Compound 716383]
- YAP1 (% UTC) [7]: 98 % UTC

Substance: 1076208 (kG*kA*kG*dG*dA*dA*dT*dA*dT*dT*dA*d[5mC]*dA*kG*kA*k[5mC]; antisense) [compound 1076208]
- YAP1 (% UTC) [11]: 15 % UTC

Substance: 1075462 (antisense kG*kT*kT*dT*dA*dT*dA*dG*dA*d[5mC]*dA*dA*dG*kT*k[5mC]*kA) [Compound 1075462]
- YAP1 (% UTC) [6]: 15 % UTC

Substance: 1076069 (kT*k[5mC]*kT*dA*dA*dA*dA*dT*dG*dA*d[5mC]*d[5mC]*dT*kT*kA*kG; antisense) [Compound 1076069]
- YAP1 (% UTC) [12]: 118 % UTC

Substance: 1076421 (kA*kA*kT*dT*dA*dT*dG*dA*d[5mC]*d[5mC]*dT*d[5mC]*d[5mC]*kA*kT*kG; antisense) [Compound 1076421]
- YAP1 (% UTC) [12]: 65 % UTC

Substance: 1076241 (k[5mC]*kA*kA*dT*dA*dA*dG*dG*dA*dA*d[5mC]*dA*dG*kT*kT*kT; antisense) [compound 1076241]
- YAP1 (% UTC) [10]: 42 % UTC

Substance: 1076177 (k[5mC]*kT*kT*dT*dA*dT*dT*dT*d[5mC]*d[5mC]*d[5mC]*dA*d[5mC]*k[5mC]*k[5mC]*kG; antisense) [compound 1076177]
- YAP1 (% UTC) [10]: 37 % UTC

Substance: 1075435 (antisense k[5mC]*kT*kT*dA*dA*dA*d[5mC]*dG*dA*dT*dA*dA*dA*kG*kT*kA) [Compound 1075435]
- YAP1 (% UTC) [13]: 93 % UTC

Substance: 1075977 (kG*kA*kT*dT*dA*dA*dA*dA*dG*dT*d[5mC]*dG*dG*kG*k[5mC]*k[5mC]; antisense) [Compound 1075977]
- YAP1 (% UTC) [3]: 73 % UTC

Substance: 1075120 (kA*kA*kT*dT*dA*dG*d[5mC]*d[5mC]*dT*dA*d[5mC]*d[5mC]*dA*k[5mC]*k[5mC]*kT; antisense) [compound 1075120]
- YAP1 (% UTC) [11]: 42 % UTC

Substance: 716447 (k[5mC]*k[5mC]*kA*dA*d[5mC]*d[5mC]*dA*dA*d[5mC]*d[5mC]*d[5mC]*d[5mC]*d[5mC]*k[5mC]*k[5mC]*kA; antisense) [Compound 716447]
- YAP1 (% UTC) [8]: 97 % UTC

Substance: 1076170 (kA*kG*kT*dA*dA*dA*dG*dA*dG*dT*dA*d[5mC]*dT*kG*kT*kA; antisense) [Compound 1076170]
- YAP1 (% UTC) [14]: 16 % UTC

Substance: 1076298 (kG*kT*kT*dA*dT*dA*dA*dA*dG*dA*d[5mC]*d[5mC]*d[5mC]*kA*kA*kT; antisense) [Compound 1076298]
- YAP1 (% UTC) [14]: 10 % UTC

Substance: 716359 (k[5mC]*k[5mC]*k[5mC]*d[5mC]*dT*dG*dA*d[5mC]*d[5mC]*d[5mC]*dA*dG*dG*k[5mC]*kG*kA; antisense) [Compound 716359]
- YAP1 (% UTC) [7]: 101 % UTC

Substance: 1075570 (kG*kA*kT*dA*d[5mC]*dT*dA*dA*dG*d[5mC]*dA*d[5mC]*dA*kG*kA*kG; antisense) [compound 1075570]
- YAP1 (% UTC) [5]: 16 % UTC

Substance: 1075784 (kA*kT*kT*dT*dT*dA*dT*dA*dG*dG*dG*d[5mC]*d[5mC]*kA*kT*kT; antisense) [Compound 1075784]
- YAP1 (% UTC) [9]: 3 % UTC

Substance: 1075859 (antisense kA*k[5mC]*kT*dT*dA*dT*d[5mC]*dA*d[5mC]*dT*d[5mC]*dT*dG*k[5mC]*k[5mC]*k[5mC]) [compound 1075859]
- YAP1 (% UTC) [4]: 20 % UTC

Substance: 716370 (k[5mC]*kA*kG*dT*dG*d[5mC]*d[5mC]*dT*dG*d[5mC]*dA*dT*d[5mC]*kA*kG*kT; antisense) [Compound 716370]
- YAP1 (% UTC) [1]: 25 % UTC

Substance: 1074641 (antisense kG*kG*k[5mC]*d[5mC]*dA*dA*dA*dA*dT*dA*d[5mC]*dT*dT*kA*kG*kA) [compound 1074641]
- YAP1 (% UTC) [10]: 107 % UTC

Substance: 1076554 (antisense kT*kG*kG*dG*dA*dA*dT*dA*dG*dT*dG*dA*dA*kT*kT*kT) [Compound 1076554]
- YAP1 (% UTC) [14]: 30 % UTC

Substance: 716513 (antisense kA*kA*kT*d[5mC]*dT*dT*dA*dA*dT*d[5mC]*dT*dG*dT*kG*kG*k[5mC]) [Compound 716513]
- YAP1 (% UTC) [8]: 30 % UTC

Substance: 1076243 (kA*kT*kA*dT*dT*d[5mC]*dG*dA*dT*dG*dT*dA*dA*k[5mC]*kT*kT; antisense) [compound 1076243]
- YAP1 (% UTC) [4]: 41 % UTC

Substance: 1074891 (antisense kT*kG*kA*dA*dG*dT*dT*dT*dA*dG*d[5mC]*d[5mC]*dT*kG*kA*kA) [Compound 1074891]
- YAP1 (% UTC) [13]: 31 % UTC
